# Measured values as given in patent US11999746B2, “Compounds” (GlaxoSmithKline Intellectual Property Development Limited, priority 2014, dated 2024).
# Legend:
# Lp-PLA2 in human plasma = molecular target: T1, Lp-PLA2 in human plasma (Homo sapiens, UniProt Q13093); experiment: (3a) Lp-PLA2 human plasma Thio-PAF assay; type: biochemical; conditions: (3a) Thio-PAF assay, pooled human plasma; Examples 1-265 and 413-430 were tested here; read-out: pIC50 in the Lp-PLA2 human plasma assay (converted)
# T1 construct: from tissue; host or cells: pooled human plasma
# T1 sequence (Q13093 22-441): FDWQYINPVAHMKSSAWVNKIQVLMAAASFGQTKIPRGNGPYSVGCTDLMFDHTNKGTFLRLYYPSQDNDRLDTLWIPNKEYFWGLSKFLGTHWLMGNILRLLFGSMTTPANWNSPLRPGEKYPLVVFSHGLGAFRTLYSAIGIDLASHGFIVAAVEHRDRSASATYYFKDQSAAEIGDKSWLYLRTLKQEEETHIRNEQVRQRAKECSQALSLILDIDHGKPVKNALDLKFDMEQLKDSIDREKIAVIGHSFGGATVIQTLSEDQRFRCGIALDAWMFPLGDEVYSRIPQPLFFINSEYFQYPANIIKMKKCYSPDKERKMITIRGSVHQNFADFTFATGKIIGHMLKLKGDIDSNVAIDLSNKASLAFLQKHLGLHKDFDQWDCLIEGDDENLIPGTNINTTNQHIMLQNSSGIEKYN
# In short: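 Pooled human plasma preincubated 30 min with serially diluted compound, then given 2-thio-PAF substrate with CPM and NEM in 50 mM HEPES pH 7.4, 150 mM NaCl, 1 mM CHAPS. Reaction quenched with TFA after 2 min; CPM thiol-adduct fluorescence read at ex 380/em 485 after 40 min; pIC50 reported.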
# [1] = molecular target: T2, recombinant human Lp-PLA2 (Homo sapiens, UniProt Q13093); experiment: (1a) PED6 assay, recombinant human Lp-PLA2 (rhLp-PLA2); type: biochemical; conditions: Examples 1-167 and 413-430 were tested here, one experiment or average of multiple experiments, read-out: rhLp-PLA2 (pIC50) (converted)
# T2 sequence (Q13093 22-441): T1 sequence (Q13093 22-441)
# Source text: (1) Recombinant Human Lp-PLA2 Assays (rhLp-PLA2)
# N-((6-(2,4-Dinitrophenyl)amino)-hexanoyl)-2-(4,4-difluoro-5,7-dimethyl-4-bora-3a,4a-diaza-s-indacene-3-pentanoyl)-1-hexadecanoyl-sn-glycero-3-phosphoethanolamine, triethylammonium salt (PED6) is a commercially available fluorescently-labeled phospholipid, which is commercially available from Invitrogene and Molecular Probes. There is a quenching […] and a Bodipy fluorescein (FL) group in the sn2 position. Upon cleavage with Lp-PLA2, the Bodipy FL group is liberated and then may result in an increase in fluorescence. Inhibitors of Lp-PLA2 therefore prevent this cleavage and no fluorescent increase is observed.
# The PED6 assay was run as an unquenched 10 μL assay. The source plate containing the compounds to be tested was prepared by making 1:3 (by volume) serial dilution of the compounds within DMSO on 384-well microplate. Then, 0.01 μL of the compounds on compound source plate were transferred into 384 well Greiner 784076 (black) plates using ECHO liquid dispenser. 5 μL of recombinant human Lp-PLA2 enzyme (4 nM) rhLp-PLA2 in assay buffer of 50 mM HEPES, pH 7.4, 150 mM NaCl, 1 mM CHAPS) was added to each well of the plate. Plates were centrifuged for 10 sec at 500 rpm. After 30 minutes preincubation, 5 μL of substrate (4 μM PED6 [from 5 mM DMSO stock] in assay buffer of 50 mM HEPES, pH 7.4, 150 mM NaCl, 1 mM CHAPS) was added to 384 well Greiner 784076 (black) plates. Plates were centrifuged for 10 sec at 500 rpm. The plate was covered to protect it from light and incubated for 20 min at room temperature. The plates were read for fluorescence intensity at ex: 480/em: 540 using ViewLux microplate imager for Envision spectrofluroimeters. pIC50 data, curve and QC analysis was conducted by using XL fit module in Excel.
SMILES,IC50 (Lp-PLA2 in human plasma) [µM],IC50 [1] [µM]
"N#Cc1cc(COc2cc3n(c(=O)n2)CC2CCCCN32)ccc1Oc1ccc(C(F)(F)F)cc1 (stereo not shown) [Example E23, 5-(((1-Oxo-6,7,8,9,9a,10-hexahydro-1H-pyrido[1′,2′:3,4]imidazo[1,2-c]pyrimidin-3-yl)oxy)methyl)-2-(4-(trifluoromethyl)phenoxy)benzonitrile]",≤ 0.1,≤ 0.001
"O=c1nc(OCc2cc(F)c(Oc3ccnc(Cl)c3)c(F)c2)cc2n1CC1CCCCN21 (stereo not shown) [Example E26, 3-((4-((2-Chloropyridin-4-yl)oxy)-3,5-difluorobenzyl)oxy)-6,7,8,9,9a,10-hexahydro-1H-pyrido[1,2′:3,4]imidazo[1,2-c]pyrimidin-1-one]",≤ 0.1,≤ 0.001
"O=c1nc(OCc2ccc(F)c(Cl)c2)cc2n1CC1CCCCN21 (stereo not shown) [Example E27, 3-((3-Chloro-4-fluorobenzyl)oxy)-6,7,8,9,9a,10-hexahydro-1H-pyrido[1′,2′:3,4]imidazo[1,2 c]pyrimidin-1-one]",≤ 10,≤ 0.1
"N#Cc1cc(Oc2ccc(COc3cc4n(c(=O)n3)CC3CCCCN43)cc2F)cc(C(F)(F)F)c1 (stereo not shown) [Example E28, 3-(2-Fluoro-4-(((1-oxo-6,7,8,9,9a,10-hexahydro-1H-pyrido[1′,2′:3,4]imidazo[1,2-c]pyrimidin-3-yl)oxy)methyl)phenoxy)-5-(trifluoromethyl)benzonitrile]",≤ 0.1,≤ 0.001
"O=c1nc(OCc2ccc(F)c(F)c2)cc2n1C[C@H]1CCCCN21 [Example E30, (R)-3-((3,4-Difluorobenzyl)oxy)-6,7,8,9,9a,10-hexahydro-1H-pyrido[1′,2′:3,4]imidazo[1,2-c]pyrimidin-1-one]",≤ 0.1,≤ 0.1
"O=c1nc(OCc2ccc(F)c(F)c2)cc2n1C[C@@H]1CCCCN21 [Example E31, (S)-3-((3,4-Difluorobenzyl)oxy)-6,7,8,9,9a,10-hexahydro-1H-pyrido[1′,2′:3,4]imidazo[1,2-c]pyrimidin-1-one]",≤ 10,≤ 0.1
"O=c1nc(OCc2cc(F)cc(F)c2)cc2n1C[C@@H]1CCCCN21 [Example E35, (S)-3-((3,5-Difluorobenzyl)oxy)-6,7,8,9,9a,10-hexahydro-1H-pyrido[1′,2′:3,4]imidazo[1,2-c]pyrimidin-1-one]",≤ 10,≤ 0.1
"O=c1nc(OCc2cc(F)c(Oc3ccnc(C(F)(F)F)c3)c(F)c2)cc2n1CC1CCCCN21 (stereo not shown) [Example E37, 3-((3,5-difluoro-4-((2-(trifluoromethyl)pyridin-4-yl)oxy)benzyl)oxy)-6,7,8,9,9a,10-hexahydro-1H-pyrido[1′,2′:3,4]imidazo[1,2-c]pyrimidin-1-one]",≤ 0.1,≤ 0.001
"O=c1nc(OCc2ccc(Oc3ccc(C(F)(F)F)nc3)c(F)c2)cc2n1CC1CCCCN21 (stereo not shown) [Example E38, 3-((3-Fluoro-4-((6-(trifluoromethyl)pyridin-3-yl)oxy)benzyl)oxy)-6,7,8,9,9a,10-hexahydro-1H-pyrido[1′,2′:3,4]imidazo[1,2-c]pyrimidin-1-one]",≤ 0.1,≤ 0.001
"O=c1nc(OCc2ccc(Oc3ccnc(C(F)(F)F)c3)c(F)c2)cc2n1C[C@@H]1CCCCN21 [Example E40, (S)-3-((3-Fluoro-4-((2-(trifluoromethyl)pyridin-4-yl)oxy)benzyl)oxy)-6,7,8,9,9a,10-hexahydro-1H-pyrido[1′,2′:3,4]imidazo[1,2-c]pyrimidin-1-one]",≤ 0.1,≤ 0.001
O=c1nc(OCc2cc(F)c(Oc3ccnc(C(F)(F)F)c3)c(F)c2)cc2n1CC1CCCCN21 (stereo not shown) [Example E41],≤ 0.1,≤ 0.001
"O=c1nc(OCc2ccc(Oc3cncc(C(F)(F)F)c3)c(F)c2)cc2n1C[C@@H]1CCCCN21 [Example E42, (S)-3-((3-fluoro-4-((5-(trifluoromethyl)pyridin-3-yl)oxy)benzyl)oxy)-6,7,8,9,9a,10-hexahydro-1H-pyrido[1′,2′:3,4]imidazo[1,2-c]pyrimidin-1-one]",≤ 0.1,≤ 0.001
"O=c1nc(OCc2ccc(Oc3cnc(C(F)(F)F)nc3)c(F)c2)cc2n1CC1CCCCN21 (stereo not shown) [Example E43, 3-((3-fluoro-4-((2-(trifluoromethyl)pyrimidin-5-yl)oxy)benzyl)oxy)-6,7,8,9,9a,10-hexahydro-1H-pyrido[1′,2′:3,4]imidazo[1,2-c]pyrimidin-1-one]",≤ 0.1,≤ 0.1
"O=c1nc(OCc2ccc(Oc3ccnc(C(F)(F)F)c3)c(F)c2)cc2n1CC1CCCCN21 (stereo not shown) [Example E44, 3-((3-Fluoro-4-((2-(trifluoromethyl)pyridin-4-yl)oxy)benzyl)oxy)-6,7,8,9,9a,10-hexahydro-1H-pyrido[1′,2′:3,4]imidazo[1,2-c]pyrimidin-1-one]",≤ 0.1,≤ 0.001
"O=c1nc(OCc2cc(F)c(Oc3ccnc(C(F)(F)F)c3)c(F)c2)cc2n1CC1CCCCN21 (stereo not shown) [Example E45, 3-((3,5-Difluoro-4-((2-(trifluoromethyl)pyridin-4-yl)oxy)benzyl)oxy)-6,7,8,9,9a,10-hexahydro-1H-pyrido[1′,2′:3,4]imidazo[1,2-c]pyrimidin-1-one]",≤ 0.1,≤ 0.001

# Now from value to molecule:
IC50 (Lp-PLA2 in human plasma) [µM],IC50 [1] [µM],SMILES
≤ 0.1,≤ 0.001,"N#Cc1cc(COc2cc3n(c(=O)n2)CC2CCCCN32)ccc1Oc1ccc(Cl)c(F)c1 (stereo not shown) [Example E24, 2-(4-Chloro-3-fluorophenoxy)-5-(((1-oxo-6,7,8,9,9a,10-hexahydro-1H pyrido-[1′,2′:3,4]imidazo[1,2-c]pyrimidin-3-yl)oxy)methyl)benzonitrile]"
≤ 0.1,≤ 0.001,"O=c1nc(OCc2cc(F)c(Oc3ccc(C(F)(F)F)nc3)c(F)c2)cc2n1CC1CCCCN21 (stereo not shown) [Example E25, 3-((3,5-Difluoro-4-((6-(trifluoromethyl)pyridin-3-yl)oxy)benzyl)oxy)-6,7,8,9,9a,10-hexahydro-1H-pyrido[1′,2′:3,4]imidazo[1,2-c]pyrimidin-1-one]"
≤ 10,≤ 0.1,"O=c1nc(OCc2cc(F)cc(Cl)c2)cc2n1CC1CCCCN21 (stereo not shown) [Example E29, 3-((3-Chloro-5-fluorobenzyl)oxy)-6,7,8,9,9a,10-hexahydro-1H-pyrido[1′,2′:3,4]imidazo[1,2-c]pyrimidin-1-one]"
≤ 10,≤ 0.1,"O=c1nc(OCc2cc(F)c(F)c(F)c2)cc2n1C[C@@H]1CCCCN21 [Example E32, (S)-3-((3,4,5-Trifluorobenzyl)oxy)-6,7,8,9,9a,10-hexahydro-1H-pyrido[1′,2′:3,4]imidazo[1,2-c]pyrimidin-1-one]"
≤ 10,≤ 0.1,"N#Cc1cccc(COc2cc3n(c(=O)n2)C[C@@H]2CCCCN32)c1 [Example E33, (S)-3-(((1-Oxo-6,7,8,9,9a,10-hexahydro-1H-pyrido[1′,2′:3,4]imidazo[1,2-c]pyrimidin-3-yl)oxy)methyl)benzonitrile]"
≤ 10,≤ 0.1,"O=c1nc(OCc2ccc(F)cc2)cc2n1C[C@@H]1CCCCN21 [Example E34, (S)-3-((4-Fluorobenzyl)oxy)-6,7,8,9,9a,10-hexahydro-1H-pyrido[1′,2′:3,4]imidazo-[1,2-c] pyrimidin-1-one]"
≤ 10,≤ 0.1,"O=c1nc(OCCc2cccs2)cc2n1C[C@@H]1CCCCN21 [Example E36, (S)-3-(2-(Thiophen-2-yl)ethoxy)-6,7,8,9,9a,10-hexahydro-1H-pyrido[1′,2′:3,4]imidazo[1,2-c]pyrimidin-1-one]"
≤ 0.1,≤ 0.001,"O=c1nc(OCc2cc(F)c(Oc3ccc(C(F)(F)F)nc3)c(F)c2)cc2n1CC1CCCCN21 (stereo not shown) [Example E39, 3-((3,5-Difluoro-4-((6-(trifluoromethyl)pyridin-3-yl)oxy)benzyl)oxy)-6,7,8,9,9a,10-hexahydro 1H-pyrido[1′,2′:3,4]imidazo[1,2-c]pyrimidin-1-one]"
